Experiment [1] deals with distinct kinases tested excluding mutant variants, typically 359 or 386 kinases. The experiment in a line: Kinase selectivity score from competition binding panel. The following applies: compound at 10 μM; fraction of kinases with inhibition of 90% or greater. On the procedure: (§1) Competition binding assays used herein were developed, validated and performed as described in Fabian et al., Nature Biotechnology 2005, 23,329-336. Kinases were produced as fusions to T7 phage (See, Fabian et al. or WO04/015142) or alternatively, the kinases were expressed in HEK-293 cells and subsequently tagged with DNA for PCR detection (See, WO08/005310). For the binding assays, streptavidin-coated magnetic beads were treated with biotinylated affinity ligands for 30 min at rt to generate affinity resins. The liganded beads were blocked with excess biotin and washed with blocking buffer (SeaBlock (Pierce), 1% BSA, 0.05% Tween 20, 1 mM DTT) to remove unbound ligand and to reduce non-specific binding. Binding reactions were assembled by combining kinase, liganded affinity beads, and test compounds in 1× binding buffer (20% SeaBlock, 0.17×PBS, 0.05% Tween 20, 6 mM DTT). Test compounds were prepared as 100× stocks in DMSO and rapidly diluted into the aqueous environment. DMSO was added to control assays lacking a test compound. Primary screen interactions were performed in polypropylene 384-well plates in a final volume of 34 μL, while Kd determinations were performed in polystyrene 96-well plates in a final volume of 135 μL. The assay plates were incubated at room temperature with shaking for 1 hour, long enough for binding reactions to reach equilibrium, and the affinity beads were washed extensively with wash buffer (1× PBS, 0.05% Tween 20) to remove unbound protein. The beads were then resuspended in elution buffer (1× PBS, 0.05% Tween 20, 2 μM non-biotinylated affinity ligand) and incubated at room temperature with shaking for 30 min. The kinase concentration in the eluates was measured by quantitative PCR. Each kinase was tested individually against each compound. Kds were determined using eleven serial threefold dilutions. A selectivity score, which is a quantitative measure of selectivity of a compound against a panel of enzymes, may be calculated for a compound by dividing the number of enzymes for which a compound meets a set criteria, (for example, a binding constant of 100 nM or less), by the total number of enzymes tested.

The test system of experiment [2] is GM-CSFR/JAK2/STAT5 pathway in CSTF-1 cells. As to the kind of experiment: CSTF-1 cell-based reporter assay (beta-lactamase, GM-CSF stimulated). Further details: species or system human. The settings on record: Homo sapiens; GM-CSF at 2 ng/mL, 4 hours; read-out: Cell Assay: CS TF-1 reporter assay IC50. On the procedure:
CSTF-1 Cell-Based Reporter Assay
CSTF-1 cells are derived from the human erythroleukemia cell line that is growth dependent on GM-CSF and has an intact GM-CSFR/JAK2/STAT5 pathway. The cell line contains stably integrated beta-lactamase reporter gene under the control of the […] (irf 1) response element recognized by the activated transcription factor STATS. csTF-1 cells (Invitrogen K1219) were washed with assay media (97% OPTIMEM/ 0.5% dialyzed FBS/0.1 mM NEAA/1 mM Na pyr/P/S) and seeded in the same media at 5×10^5 cell/mL in T150 flask. After 16 hour incubation, cells were seeded at 2×10^5 cell/well in 50 μl volume, into Costar, clear bottom, 96-well assay plates. Serial dilutions of compounds were added to the plates with final DMSO concentration at 0.5% and GM-CSF at 2 ng/mL and the plates were then incubated at […] and 5% CO2 for 4 hours. The plates were brought to room temperature before adding Substrate Mixture according to manufacturer's protocol (Invitrogen, Catalog #K1085). The assay plates containing the substrate mixture were incubated in the dark at room temperature for 2 hours. Blue and green fluorescence was measured with excitation at 409 nm and emission at 460 nm (for blue) and excitation at 409 nm and emission at 530 nm (for green) using Spectra Max Gemini EM.

In experiment [3] the target is T1, JAK2 (Homo sapiens, UniProt O60674).
T1 construct: made in house
The experiment in a line: Competition binding assay, JAK2.
Excerpt: (§2) Competition Binding Assay to Determine Binding Constants (Kd) of the Compounds Against JAK Kinases
as §1

Experiment [4] deals with T2, TYK2 (Homo sapiens, UniProt P29597).
T2 construct: made in house
The experiment in a line: Competition binding assay, TYK2.
Excerpt: as §2, §1

Experiment [5] has as its target T3, JAK3 (Homo sapiens, UniProt P52333).
T3 construct: made in house
T3 sequence (P52333 1-1124): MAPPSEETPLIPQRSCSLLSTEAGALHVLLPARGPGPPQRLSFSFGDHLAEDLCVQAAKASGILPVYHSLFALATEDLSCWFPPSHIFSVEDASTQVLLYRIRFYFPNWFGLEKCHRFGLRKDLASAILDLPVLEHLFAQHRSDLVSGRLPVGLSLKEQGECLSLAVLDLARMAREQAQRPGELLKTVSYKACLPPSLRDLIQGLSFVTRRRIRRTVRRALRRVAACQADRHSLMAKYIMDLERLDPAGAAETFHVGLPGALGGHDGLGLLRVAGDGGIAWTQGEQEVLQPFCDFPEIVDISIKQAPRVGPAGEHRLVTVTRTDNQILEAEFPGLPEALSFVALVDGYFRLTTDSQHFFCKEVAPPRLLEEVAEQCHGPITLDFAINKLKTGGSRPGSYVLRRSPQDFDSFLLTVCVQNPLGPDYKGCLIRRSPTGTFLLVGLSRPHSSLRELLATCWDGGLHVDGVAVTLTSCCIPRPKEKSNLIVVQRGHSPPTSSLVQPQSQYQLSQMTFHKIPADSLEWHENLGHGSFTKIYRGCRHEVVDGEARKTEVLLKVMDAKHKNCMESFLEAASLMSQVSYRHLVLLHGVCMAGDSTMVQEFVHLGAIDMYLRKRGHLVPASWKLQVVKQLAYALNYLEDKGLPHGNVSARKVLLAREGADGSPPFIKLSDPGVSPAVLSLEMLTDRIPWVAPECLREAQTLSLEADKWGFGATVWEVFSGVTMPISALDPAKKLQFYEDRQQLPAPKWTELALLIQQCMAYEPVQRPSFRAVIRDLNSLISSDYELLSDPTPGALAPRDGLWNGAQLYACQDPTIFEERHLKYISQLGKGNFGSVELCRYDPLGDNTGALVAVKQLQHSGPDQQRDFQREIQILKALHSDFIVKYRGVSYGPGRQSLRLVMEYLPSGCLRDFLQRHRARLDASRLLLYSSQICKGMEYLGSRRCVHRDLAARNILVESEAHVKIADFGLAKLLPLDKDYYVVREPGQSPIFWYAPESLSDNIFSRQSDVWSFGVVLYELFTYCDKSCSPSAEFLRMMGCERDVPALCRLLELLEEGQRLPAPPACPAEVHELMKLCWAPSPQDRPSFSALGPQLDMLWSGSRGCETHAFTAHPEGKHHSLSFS
As to the kind of experiment: Competition binding assay, JAK3.
Excerpt: as §2, §1

T2 sequence (P29597 whole entry): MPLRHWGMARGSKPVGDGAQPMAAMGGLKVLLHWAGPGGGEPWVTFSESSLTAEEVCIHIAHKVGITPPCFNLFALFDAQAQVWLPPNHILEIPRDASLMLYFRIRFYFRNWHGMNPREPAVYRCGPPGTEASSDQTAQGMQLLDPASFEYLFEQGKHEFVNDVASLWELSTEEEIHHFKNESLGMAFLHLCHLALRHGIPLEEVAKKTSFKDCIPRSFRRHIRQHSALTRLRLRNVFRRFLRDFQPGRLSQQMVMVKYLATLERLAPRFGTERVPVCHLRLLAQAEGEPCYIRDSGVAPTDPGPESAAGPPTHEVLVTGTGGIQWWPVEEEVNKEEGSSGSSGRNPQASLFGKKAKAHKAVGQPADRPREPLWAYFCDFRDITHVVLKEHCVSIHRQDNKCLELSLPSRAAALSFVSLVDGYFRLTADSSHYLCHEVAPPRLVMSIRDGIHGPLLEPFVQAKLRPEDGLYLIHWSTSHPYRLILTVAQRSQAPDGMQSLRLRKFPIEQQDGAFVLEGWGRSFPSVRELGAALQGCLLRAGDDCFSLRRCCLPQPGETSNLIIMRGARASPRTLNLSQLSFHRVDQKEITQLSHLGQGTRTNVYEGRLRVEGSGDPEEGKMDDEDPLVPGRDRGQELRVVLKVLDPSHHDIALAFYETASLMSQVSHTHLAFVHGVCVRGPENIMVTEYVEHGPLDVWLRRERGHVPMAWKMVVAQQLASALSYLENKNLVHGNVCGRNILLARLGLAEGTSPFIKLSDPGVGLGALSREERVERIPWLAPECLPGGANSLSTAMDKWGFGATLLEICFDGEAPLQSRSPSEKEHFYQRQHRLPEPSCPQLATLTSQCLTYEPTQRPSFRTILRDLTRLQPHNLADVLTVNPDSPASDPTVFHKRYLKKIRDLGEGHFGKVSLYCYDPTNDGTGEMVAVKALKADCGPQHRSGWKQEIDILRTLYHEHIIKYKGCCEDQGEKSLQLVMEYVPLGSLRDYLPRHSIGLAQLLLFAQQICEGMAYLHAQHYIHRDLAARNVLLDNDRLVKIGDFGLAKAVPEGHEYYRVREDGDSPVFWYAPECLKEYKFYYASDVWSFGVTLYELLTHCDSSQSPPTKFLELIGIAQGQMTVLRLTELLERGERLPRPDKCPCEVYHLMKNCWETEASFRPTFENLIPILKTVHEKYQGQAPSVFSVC
T1 sequence (O60674 whole entry): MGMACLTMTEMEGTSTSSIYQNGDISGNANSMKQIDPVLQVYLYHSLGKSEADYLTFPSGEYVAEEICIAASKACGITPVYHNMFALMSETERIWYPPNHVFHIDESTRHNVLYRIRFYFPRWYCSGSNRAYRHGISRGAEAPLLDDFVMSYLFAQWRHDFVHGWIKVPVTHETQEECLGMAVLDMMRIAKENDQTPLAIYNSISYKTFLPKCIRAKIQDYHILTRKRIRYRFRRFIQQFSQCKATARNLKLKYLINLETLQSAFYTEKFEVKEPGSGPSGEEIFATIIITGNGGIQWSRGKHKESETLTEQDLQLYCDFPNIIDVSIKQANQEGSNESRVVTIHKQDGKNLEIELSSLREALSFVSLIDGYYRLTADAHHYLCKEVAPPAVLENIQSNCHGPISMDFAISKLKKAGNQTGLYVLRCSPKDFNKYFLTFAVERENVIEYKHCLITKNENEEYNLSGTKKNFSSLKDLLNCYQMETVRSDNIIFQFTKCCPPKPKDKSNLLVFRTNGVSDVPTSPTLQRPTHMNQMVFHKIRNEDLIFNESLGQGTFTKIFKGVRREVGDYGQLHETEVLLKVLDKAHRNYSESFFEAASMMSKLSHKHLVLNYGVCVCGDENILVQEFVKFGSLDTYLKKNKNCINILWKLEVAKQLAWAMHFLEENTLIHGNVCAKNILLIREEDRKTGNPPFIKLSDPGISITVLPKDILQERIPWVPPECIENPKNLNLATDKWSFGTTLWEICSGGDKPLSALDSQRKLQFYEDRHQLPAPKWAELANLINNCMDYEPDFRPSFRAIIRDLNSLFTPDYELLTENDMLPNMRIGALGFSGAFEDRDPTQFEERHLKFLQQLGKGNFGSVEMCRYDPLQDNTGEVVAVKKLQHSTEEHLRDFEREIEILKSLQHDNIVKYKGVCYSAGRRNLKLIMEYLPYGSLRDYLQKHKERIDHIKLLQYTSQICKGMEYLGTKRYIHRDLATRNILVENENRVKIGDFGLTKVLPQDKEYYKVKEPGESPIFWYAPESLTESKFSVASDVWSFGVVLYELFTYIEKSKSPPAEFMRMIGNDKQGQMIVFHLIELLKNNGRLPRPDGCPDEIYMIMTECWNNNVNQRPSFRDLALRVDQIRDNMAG

In the case of `Cc1cc(Nc2nc(C(O)c3ccc(F)cc3)nc3sccc23)n[nH]1` (racemic) [Example 4, (R,S)-(4-fluorophenyl)(4-(5-methyl-1H-pyrazol-3-ylamino)thieno[2,3-d]pyrimidin-2-yl)methanol], the “S-Score: S(10) at 10 μM” value in experiment [1] is reported as “B (0.3 < B ≦ 0.4)”. Moreover, in experiment [2], the IC50 is no more than 100 nM. In addition, the Kd in experiment [3] is no more than 1 nM; in experiment [4] it was no more than 10 nM; in experiment [5], no more than 10 nM.

With `Cc1cc(Nc2nc(C(O)c3ccc(F)cc3)nc3ccsc23)n[nH]1` (racemic) [Example 6, (R,S)-4-Fluorophenyl)(4-(5-methyl-1H-pyrazol-3-ylamino)thieno[3,2-d]pyrimidin-2-yl)methanol], the “S-Score: S(10) at 10 μM” value in experiment [1] is given as “A (A ≦ 0.3)”. The IC50 in experiment [2] was no more than 100 nM. In addition, the Kd in experiment [3] was no more than 1 nM; in experiment [4], no more than 10 nM; in experiment [5] it was no more than 10 nM.

With `COC(c1ccc(F)cc1)c1nc(Nc2cc(C)[nH]n2)c2ccsc2n1` (racemic) [Example 9, (R,S)-2-((4-fluorophenyl)(methoxy)methyl)-N-(5-methyl-1H-pyrazol-3-yl)thieno[2,3-d]pyrimidin-4-amine], the “S-Score: S(10) at 10 μM” value in experiment [1] is listed as “A (A ≦ 0.3)”. In addition, in experiment [2], the IC50 fell in the range of 100 to 500 nM. Moreover, the Kd was no more than 1 nM in experiment [3], no more than 10 nM in experiment [4] and 10 to 100 nM in experiment [5].

For `Cc1cc(Nc2nc(C(O)c3ccc(F)cc3)nc3scc(C)c23)n[nH]1` (racemic) [Example 11, (R,S)-(4-Fluorophenyl)(5-methyl-4-(5-methyl-1H-pyrazol-3-ylamino)thieno[2,3-d]pyrimidin-2-yl)methanol], the “S-Score: S(10) at 10 μM” value in experiment [1] is recorded as “A (A ≦ 0.3)”. In addition, the IC50 in experiment [2] was greater than 500 nM. For the same molecule, the Kd in experiment [3] was greater than 10 nM; in experiment [4], greater than 100 nM; in experiment [5] it was greater than 100 nM.

Consider `Cc1csc2nc(C(O)c3ccc(F)cc3)nc(Nc3cc[nH]n3)c12` (racemic) [Example 13, (R,S)-(4-(1H-pyrazol-3-ylamino)-5-methylthieno[2,3-d]pyrimidin-2-yl)(4-fluorophenyl)methanol], for which the “S-Score: S(10) at 10 μM” value in experiment [1] was “A (A ≦ 0.3)”. The IC50 in experiment [2] was greater than 500 nM. In addition, the Kd in experiment [3] is greater than 10 nM; in experiment [4] it was greater than 100 nM; in experiment [5] it was greater than 100 nM.

As to `Cc1cc(Nc2nc(C(O)c3ccc(F)cc3)nc3sc(C)cc23)n[nH]1` (racemic) [Example 16, (R,S)-(4-fluorophenyl)(6-methyl-4-(5-methyl-1H-pyrazol-3-ylamino)thieno[2,3-d]pyrimidin-2-yl)methanol], the “S-Score: S(10) at 10 μM” value in experiment [1] is listed as “C (0.4 < C ≦ 0.5)”. In experiment [2], the concentration for half-maximal inhibition (IC50) was no more than 100 nM. The figures for the Kd in experiment [3], in experiment [4] and in experiment [5] were no more than 1 nM, no more than 10 nM and 10 to 100 nM, respectively.

With `Cc1cc2c(Nc3cc[nH]n3)nc(C(O)c3ccc(F)cc3)nc2s1` (racemic) [Example 17, (R,S)-(4-(1H-pyrazol-3-ylamino)-6-methylthieno[2,3-d]pyrimidin-2-yl)(4-fluorophenyl)methanol], the “S-Score: S(10) at 10 μM” value in experiment [1] is given as “A (A ≦ 0.3)”. For the same molecule, the IC50 in experiment [2] was in the range of 100 to 500 nM. Further, the Kd in experiment [3] is no more than 1 nM; in experiment [4], greater than 100 nM; in experiment [5] it was 10 to 100 nM.

Take `Cc1cc(Nc2nc(C(C)(O)c3ccc(F)cc3)nc3ccsc23)n[nH]1` (racemic) [Example 18, (R,S)-1-(4-fluorophenyl)-1-(4-(5-methyl-1H-pyrazol-3-ylamino)thieno[3,2-d]pyrimidin-2-yl)ethanol]: the IC50 in experiment [2] was no more than 100 nM. For the same molecule, the Kd in experiment [3] is no more than 1 nM; in experiment [4] it was no more than 10 nM; in experiment [5] it was no more than 10 nM.

As to `Cc1cc(Nc2nc(C(O)c3ccc(F)cc3)nc3cc(C)sc23)n[nH]1` (racemic) [Example 21, (R,S)-(4-fluorophenyl)(6-methyl-4-(5-methyl-1H-pyrazol-3-ylamino)thieno[3,2-d]pyrimidin-2-yl)methanol], the “S-Score: S(10) at 10 μM” value in experiment [1] is on record as “B (0.3 < B ≦ 0.4)”. For the same molecule, the IC50 in experiment [2] is no more than 100 nM. For the same molecule, the Kd is no more than 1 nM in experiment [3], no more than 10 nM in experiment [4] and no more than 10 nM in experiment [5].

Turning to `CC(C)(C)c1cc2nc(C(O)c3ccc(F)cc3)nc(Nc3cc[nH]n3)c2s1` (racemic) [Example 29, (R,S)-(4-(1H-pyrazol-3-ylamino)-6-tert-butylthieno[3,2-d]pyrimidin-2-yl)(4-fluorophenyl)methanol], the “S-Score: S(10) at 10 μM” value in experiment [1] is listed as “A (A ≦ 0.3)”. For the same molecule, the IC50 in experiment [2] was 100 to 500 nM. Besides, the Kd in experiment [3] was 1 to 10 nM; in experiment [4], greater than 100 nM; in experiment [5] it was greater than 100 nM.

`Cc1cc(Nc2nc(C(O)c3ccc(F)cc3)nc3cscc23)n[nH]1` (racemic) [Example 32, (R,S)-(4-fluorophenyl)(4-(5-methyl-1H-pyrazol-3-ylamino)thieno[3,4-d]pyrimidin-2-yl)methanol]: in experiment [1], the “S-Score: S(10) at 10 μM” value is “B (0.3 < B ≦ 0.4)”. For the same molecule, in experiment [2], the IC50 is no more than 100 nM. For the same molecule, the figures for the Kd in experiment [3], in experiment [4] and in experiment [5] were no more than 1 nM, no more than 10 nM and no more than 10 nM, respectively.

As for `Cc1csc2c(Nc3cc[nH]n3)nc(C(O)c3ccc(F)cc3)nc12` (centres unmarked) [Example 25, (4-(1H-Pyrazol-3-ylamino)-7-methylthieno[3,2-d]pyrimidin-2-yl)(4-fluorophenyl)methanol], the 50% inhibitory concentration (IC50) in experiment [2] is 100 to 500 nM. Besides, the Kd in experiment [3] was 1 to 10 nM; in experiment [4] it was no more than 10 nM; in experiment [5] it was 10 to 100 nM.

Regarding `Cc1cc2c(Nc3cn(C)cn3)nc(C(O)c3ccc(F)cc3)nc2s1` (centres unmarked) [Example 34, (4-fluorophenyl)(6-methyl-4-(1-methyl-1H-imidazol-4-ylamino)thieno[2,3-d]pyrimidin-2-yl)methanol], the “S-Score: S(10) at 10 μM” value in experiment [1] was “A (A ≦ 0.3)”. Moreover, in experiment [2], the IC50 was in the range of 100 to 500 nM. Besides, the values for the Kd in experiment [3] and in experiment [5] were no more than 1 nM and greater than 100 nM, respectively.
